The text below walks through data of patent US5208344A, “Naphthalenepropionic acid derivatives as anti-inflammatory/antiallergic agents” (American Home Products Corporation, priority 1991, dated 1993).

Common to all, as to format: cell-based
In assay [1] the target is T1, 5-lipoxygenase (Rattus norvegicus, UniProt P12527).
T1 construct: Peritoneal PMN are obtained from female Wistar rats (150-250 g); endogenous in cells; host or cells: rat glycogen-elicited peritoneal polymorphonuclear leukocytes, intact
T1 sequence (P12527 1-673): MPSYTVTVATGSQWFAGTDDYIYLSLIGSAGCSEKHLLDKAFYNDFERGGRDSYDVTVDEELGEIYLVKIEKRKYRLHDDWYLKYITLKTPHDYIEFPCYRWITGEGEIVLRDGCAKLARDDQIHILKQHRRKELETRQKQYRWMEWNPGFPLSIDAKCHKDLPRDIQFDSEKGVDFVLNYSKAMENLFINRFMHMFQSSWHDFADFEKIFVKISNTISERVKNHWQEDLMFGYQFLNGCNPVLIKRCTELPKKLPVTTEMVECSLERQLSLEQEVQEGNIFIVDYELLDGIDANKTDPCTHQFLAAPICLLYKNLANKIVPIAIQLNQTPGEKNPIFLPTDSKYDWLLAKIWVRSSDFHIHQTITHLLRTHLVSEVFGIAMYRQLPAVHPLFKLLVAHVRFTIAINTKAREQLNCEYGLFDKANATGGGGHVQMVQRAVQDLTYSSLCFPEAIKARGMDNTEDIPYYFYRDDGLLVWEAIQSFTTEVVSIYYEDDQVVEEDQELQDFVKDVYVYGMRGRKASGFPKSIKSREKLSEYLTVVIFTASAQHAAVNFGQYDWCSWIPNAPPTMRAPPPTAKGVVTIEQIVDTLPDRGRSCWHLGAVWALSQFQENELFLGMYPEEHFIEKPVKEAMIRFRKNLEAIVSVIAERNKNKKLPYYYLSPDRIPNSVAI
The experiment in a line: inhibition of 5-HETE synthesis by rat glycogen elicited polymorphonuclear leukocytes. Particulars: rat PMN; for inhibition at 10 µM: negative = potentiation of 5-HETE synthesis. On the procedure:
The assay of this Example measures the ability of the compounds of the invention to inhibit the synthesis of 5-HETE by rat glycogen elicited polymorphonuclear leukocytes.
(§1) Peritoneal PMN are obtained from female Wistar rats (150-250 g) that received an i.p. injection of 6% glycogen (10 ml). After 24 hours, rats are killed by CO2 asphysiation and peritoneal cells are harvested by peritoneal lavage using Ca^++ and MG^++ free Hanks' balanced salt solution (HBSS). The peritoneal exudate is centrifuged at 400 g for 10 minutes. After centrifugation, the lavaged fluid is removed and the cell pellet is resuspended in HBSS containing Ca^++ and MG^++ and 10 mM L-cysteine at a concentration of 2×10^7 cells/ml. To 1 ml portions of cell suspension, test drugs or vehicle are added and incubated at 37° C. for 10 minutes. Following this preincubation, the calcium ionophore (10 μM), a23187, is added together with 0.5 μM [14 C] arachidonic acid and further incubated for 10 minutes. The reaction is stopped by the addition of ice cold water (3 ml) and acidifying to pH 3.5. Lipoxygenase products are then extracted twice into diethyl ether. The pooled ether extracts are evaporated to dryness under nitrogen and the residue is redissolved in a small volume of methanol and spotted on aluminum backed pre-coated thin layer chromatographic plates. The samples are then cochromatographed with authentic reference 5-HETE in the solvent system - hexane: ether: acetic acid (50:50:3). After chromatography, the areas associated with 5-HETE standard are identified by autoradiography, cut out and quantitated by liquid scintillation.

For assay [2], the system named is cyclooxygenase. The experiment in a line: inhibition of synthesis of cyclooxygenase products TxB2 and PGE2 (rat polymorphonuclear leukocytes). Particulars: rat PMN; for % Inhibition of CO (as PGE2): negative = potentiation of PGE2 synthesis. On the procedure:
as §1
However, in order to determine cyclooxygenase activity, the samples are cochromatographed with authentic reference TxB2 and PGE2 in the solvent system ethyl acetate: formic acid (80:1) and the upper phase of ethyl acetate: isooctane: acetic acid: water (110:50:20:100). After chromatography, the areas associated with the TxB2 and PGE2 standards are identified by autoradiography, cut out and quantitated by liquid scintillation techniques.

The target of assay [3] is T2, 5-lipoxygenase (Homo sapiens, UniProt P09917).
T2 construct: Blood is obtained in 50-100 ml quantities from male donors; endogenous in cells; host or cells: human whole blood (leukocytes) from male donors
T2 sequence (P09917 1-674): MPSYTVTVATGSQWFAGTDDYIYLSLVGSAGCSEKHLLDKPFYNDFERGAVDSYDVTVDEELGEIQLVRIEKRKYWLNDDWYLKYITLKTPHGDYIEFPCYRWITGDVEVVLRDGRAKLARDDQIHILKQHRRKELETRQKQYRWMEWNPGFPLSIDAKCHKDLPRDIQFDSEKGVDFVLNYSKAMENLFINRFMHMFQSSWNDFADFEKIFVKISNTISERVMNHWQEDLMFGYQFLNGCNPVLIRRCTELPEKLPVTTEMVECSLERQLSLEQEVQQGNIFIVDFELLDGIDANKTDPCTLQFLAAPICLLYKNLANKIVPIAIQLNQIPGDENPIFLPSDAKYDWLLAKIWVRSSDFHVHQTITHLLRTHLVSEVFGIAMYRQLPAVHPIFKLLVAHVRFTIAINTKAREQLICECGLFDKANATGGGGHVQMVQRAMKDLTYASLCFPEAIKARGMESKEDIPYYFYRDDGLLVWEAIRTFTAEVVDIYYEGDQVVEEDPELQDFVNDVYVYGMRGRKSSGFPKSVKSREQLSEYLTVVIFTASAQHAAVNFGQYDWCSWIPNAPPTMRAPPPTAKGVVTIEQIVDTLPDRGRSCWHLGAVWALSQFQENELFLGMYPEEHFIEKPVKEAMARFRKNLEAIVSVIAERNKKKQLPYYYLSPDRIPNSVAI
The experiment in a line: inhibition of 5-lipoxygenase in human whole blood (LTB4). Particulars: human whole blood. The protocol: The assay of this Example measures the ability of the compounds tested to inhibit 5-lipxygenase in human whole blood.
Blood is obtained in 50-100 ml quantities from male donors. White blood cell counts and differentials are made. Two ml of blood are placed in a 15 ml polypropylene test tube. Compounds are solubilized in dimethylsulfoxide and diluted 1:10 in 10% bovine serum albumin in phosphate buffered saline, pH 7.4 resulting in a final dimethylsulfoxide concentration of 0.1% in the blood. Then, compounds are added to the blood in a shaking water bath at 37° C. for 10 minutes prior to the addition of 30 μM calcium ionophore (A23187; Sigma). After ionophore administration, whole blood samples are mixed and incubated for 20 minutes at 37° C. in a shaking water bath. Incubation is terminated by placing samples in an ice bath and immediately adding ethylene glycol-bis-(β-aminoethyl ether)-N,N,N',N'-tetraacetic acid (10 mM). Samples are mixed and centrifuged at 1200×g for 15 minutes at 4° C. Preparation of samples for evaluation by RIA or ELISA is carried out by the following protocol. Plasma is removed from sample tubes, placed in 15 ml polypropylene test tubes containing 8 ml methanol, and then vortexed to precipitate protein. Samples are stored at -70° C. overnight. The next day, samples are centrifuged at 200×g for 15 minutes at 4° C. to pellet the precipitate. Samples are dried in a Savant speed vac concentrator, reconstituted to original volume with ice cold RIA or ELISA buffer, and stored at -70° C. until assayed. The assay for eicosanoids (LTB4, TxB2, and PGE2) is performed as described by the manufacturer of the [^3 H]-RIA kit or ELISA kit (LTB4 -Amersham, TxB2 and PGE2 - Caymen Chemical).
The total eicosanoid level in 2 ml of blood is calculated and reported as ng/10^6 neutrophils. Significance is determined by a one-way analysis of variance with least significant difference (LSD) comparisons to control (p≤0.05) and IC50 's (μM) are determined by regression analysis (Finney, 1978). Drug effects are expressed as percent change form control values.
Compounds tested in vitro are solubilized in dimethylsulfoxide and diluted 1:10 in 10% bovine serum albumin in phosphate buffer saline resulting in a final dimethylsulfoxide concentration of 0.1% in the blood.

[4] abbreviates: read-out: % Inhibition of 5-LO (as 5-HETE).

As usually defined, the inhibition is the change of the read-out against control, counted positive when it falls. The IC50 is the concentration needed to halve the response being measured.

`Cc1ccc(S(=O)(=O)NC(=O)C(C)c2ccc3cc(OCc4ccc5ccccc5n4)ccc3c2)cc1` (stereo not drawn) [Example 25, α-Methyl-N-[(4-methylphenyl)sulfonyl]-6-(2-quinolinylmethoxy)-2-naphthaleneacetamide]: the inhibition at 10 µM in assay [1] (setting [4]) was 100%. Further, the “% Inhibition of CO (as PGE2)” value in assay [2] (10 μM) is recorded as -103%. For the same compound, 25 µM produced 45% inhibition in assay [3] (25 μM).
With `CONC(=O)C(C)c1ccc2cc(OCc3ccc4ccccc4n3)ccc2c1` (stereo not drawn) [Example 30, N-methoxy-α-methyl-6-(2-quinolinylmethoxy)-2-naphthaleneacetamide], the inhibition at 10 µM in assay [1] (setting [4]) was 92%. Also, in assay [2] (10 μM), the “% Inhibition of CO (as PGE2)” value is given as -27%. The compound also showed an inhibition at 50 µM in assay [3] of 13%.
With `COC(=O)[C@@H](C)c1ccc2cc(OCc3ccc4ccccc4n3)ccc2c1` [Example 29, (S)α-methyl-6-(2-quinolinylmethoxy)-2-naphthaleneacetic acid methyl ester], the inhibition at 10 µM in assay [1] (setting [4]) stood at 91%. Moreover, in assay [2] (10 μM), the “% Inhibition of CO (as PGE2)” value was -17%. The compound further had an inhibition at 50 µM in assay [3] of 24%.
Regarding `C[C@H](CO)c1ccc2cc(OCc3ccc4ccccc4n3)ccc2c1` [Example 26, (S)-β-methyl-6-(2-quinolinylmethoxy)-2-naphthalene ethanol], the inhibition at 10 µM in assay [1] (setting [4]) was 97%. Further, the “% Inhibition of CO (as PGE2)” value in assay [2] (10 μM) was 5%. The inhibition at 100 µM in assay [3] (100 μM) was 8%.
As to `CC(C(=O)N(C)O)c1ccc2cc(OCc3ccc4ccccc4n3)ccc2c1` (stereo not drawn) [Example 23, N-Hydroxy-α-N-dimethyl-6-(2-quinolinylmethoxy)-2-naphthaleneacetamidedihydrate], the inhibition at 10 µM in assay [1] (setting [4]) amounted to 75%. For the same compound, the “% Inhibition of CO (as PGE2)” value in assay [2] (10 μM) is reported as 17%. In assay [3] (5 μM, read-out: % Inhibition of LTB4), the inhibition at 5 µM amounted to 45%.
As for `COC(=O)C(C)c1ccc2cc(OCc3ccc4ccccc4n3)ccc2c1` (stereo not drawn) [Example 28, α-Methyl-6-(2-quinolinylmethoxy)-2-naphthaleneacetic acid methyl ester], the IC50 was 430 nM in assay [1] (read-out: IC50 (inhibition of 5-LO, as 5-HETE)) and more than 10000 nM in assay [2] (read-out: IC50 (inhibition of CO, as PGE2)).
As for `C[C@@H](C(=O)O)c1ccc2cc(OCc3ccc4ccccc4n3)ccc2c1` [Example 8, R-(-)-α-Methyl-6-(2-quinolinylmethoxy)-2-naphthaleneacetic acid], the inhibition at 0.1 µM in assay [1] (0.1 μM, read-out: % Inhibition of 5-LO (as 5-HETE)) was found to be 33%. In addition, the “% Inhibition of CO (as PGE2)” value in assay [2] (0.1 μM) is listed as -7%.
With `C[C@H](C=O)c1ccc2cc(OCc3ccc4ccccc4n3)ccc2c1` [Example 27, (S)-α-methyl-6-(2-quinolinylmethoxy)-2-naphthaleneacetaldehyde], in assay [1] (setting [4]), the inhibition at 10 µM was 100%. Moreover, in assay [2] (10 μM), the “% Inhibition of CO (as PGE2)” value is recorded as -62%.
The corresponding values for `CC(C(=O)O)c1ccc2cc(OCc3ccc4ccccc4c3)ccc2c1` (stereo not drawn) [Example 6, α-Methyl-6-(2-naphthalenylmethoxy)-2-naphthaleneacetic acid] are 100% and -15%.
